Results on 30 compounds are retold here after PMC6150381, “Design, Synthesis, and Biological Evaluation of N,N-Disubstituted-4-arylthiazole-2-methylamine Derivatives as Cholesteryl Ester Transfer Inhibitors” (Molecules : A Journal of Synthetic Chemistry and Natural …, 2017).

The term IC50 denotes the concentration needed to halve the response being measured. As usually defined, the melting point is the temperature of the solid-liquid transition.

For one data set, the target named is T1, recombinant CETP (Homo sapiens, UniProt P11597).
T1 construct: purchased Roar, New York, NY, USA RB-RPAK
T1 sequence (P11597 18-493): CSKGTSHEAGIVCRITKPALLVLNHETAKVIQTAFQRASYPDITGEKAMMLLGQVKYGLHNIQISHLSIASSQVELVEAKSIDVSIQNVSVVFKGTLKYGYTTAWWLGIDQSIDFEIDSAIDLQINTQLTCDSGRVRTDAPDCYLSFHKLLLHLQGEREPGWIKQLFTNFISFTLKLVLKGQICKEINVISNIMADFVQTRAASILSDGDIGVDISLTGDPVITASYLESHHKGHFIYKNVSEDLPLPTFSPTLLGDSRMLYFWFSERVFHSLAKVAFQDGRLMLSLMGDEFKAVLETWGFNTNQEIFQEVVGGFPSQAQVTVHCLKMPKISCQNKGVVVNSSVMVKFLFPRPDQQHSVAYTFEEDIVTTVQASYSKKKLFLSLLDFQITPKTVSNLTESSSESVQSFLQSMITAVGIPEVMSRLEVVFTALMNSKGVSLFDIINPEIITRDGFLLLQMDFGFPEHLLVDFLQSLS
Briefly: In vitro CETP inhibitory assay (BODIPY-CE fluorescence assay, CETP RP Activity Assay Kit). Format: biochemical. The following applies: for IC50: CETP inhibition, eight-point titration, each concentration tested three times. As to the method: The IC50 was determined from a curve fit of the data with each concentration tested three times.

As to `Fc1ccc(CN(Cc2ncc(-c3ccccc3)o2)c2cccc(Oc3ccccc3)c2)cc1` [Compound 17a, N-(4-Fluorobenzyl)-3-phenoxy-N-((5-phenyloxazol-2-yl)methyl)aniline], the melting point was 81 to 82.4 °C. Further, the concentration for half-maximal inhibition (IC50) on recombinant CETP worked out at 25.7 ± 0.41 µM.

`Fc1ccc(CN(Cc2ncc(-c3ccccc3)s2)c2cccc(Oc3ccccc3)c2)cc1` [Compound 17b, N-(4-Fluorobenzyl)-3-phenoxy-N-((5-phenylthiazol-2-yl)methyl)aniline] yielded a melting point of 90.5 to 92.5 °C. For the same compound, the IC50 at recombinant CETP was determined as 10.6 ± 0.32 µM.

Turning to `Cc1cc(CN(Cc2ccc(F)cc2)c2cccc(Oc3ccccc3)c2)nn1-c1ccccc1` [Compound 17c, N-(4-Fluorobenzyl)-N-((5-methyl-1-phenyl-1H-pyrazol-3-yl)methyl)-3-phenoxyaniline], the IC50 at recombinant CETP worked out at 17.1 ± 0.44 µM.

As for `Fc1ccc(CN(Cc2nc(-c3ccccc3)cs2)c2cccc(Oc3ccccc3)c2)cc1` [Compound 17d, N-(4-Fluorobenzyl)-3-phenoxy-N-((4-phenylthiazol-2-yl)methyl)aniline], at recombinant CETP, the IC50 worked out at 9.03 ± 0.21 µM.

On to `Fc1ccc(CN(Cc2nnc(-c3ccccc3)o2)c2cccc(Oc3ccccc3)c2)cc1` [Compound 17e, N-(4-Fluorobenzyl)-3-phenoxy-N-((5-phenyl-1,3,4-oxadiazol-2-yl)methyl)aniline], for which the melting point is 97.3 to 98.2 °C. On recombinant CETP, the IC50 amounted to 26.9 ± 0.35 µM.

For `Fc1ccc(CN(Cc2nc3ccccc3[nH]2)c2cccc(Oc3ccccc3)c2)cc1` [Compound 17f, N-((1H-Benzo[d]imidazol-2-yl)methyl)-N-(4-fluorobenzyl)-3-phenoxyaniline], the IC50 at recombinant CETP worked out at 13.7 ± 0.63 µM.

For `Fc1ccc(CN(Cc2nc3ccccc3o2)c2cccc(Oc3ccccc3)c2)cc1` [Compound 17g, N-(Benzo[d]oxazol-2-ylmethyl)-N-(4-fluorobenzyl)-3-phenoxyaniline], on recombinant CETP, the IC50 was found to be 15.2 ± 0.52 µM.

Take `COc1cccc(N(Cc2ccc(F)cc2)Cc2nc(-c3ccccc3)cs2)c1` [Compound 21, N-(4-Fluorobenzyl)-3-methoxy-N-((4-phenylthiazol-2-yl)methyl)aniline]: on recombinant CETP, the IC50 came to 13.96 ± 0.11 µM.

As to `COc1ccc(N(Cc2ccc(F)cc2)Cc2nc(-c3ccccc3)cs2)cc1OC` [Compound 22, N-(4-Fluorobenzyl)-3,4-dimethoxy-N-((4-phenylthiazol-2-yl)methyl)aniline], on recombinant CETP, the IC50 came out at 3.58 ± 0.03 µM.

As to `O=[N+]([O-])c1ccc(-c2csc(CN(Cc3ccc(F)cc3)c3cccc(OC(F)(F)F)c3)n2)cc1` [Compound 23, N-(4-Fluorobenzyl)-N-((4-(4-nitrophenyl)thiazol-2-yl)methyl)-3-(trifluoromethoxy)aniline], the IC50 on recombinant CETP came out at 31.69 ± 0.25 µM.

The compound `O=[N+]([O-])c1ccc(-c2csc(CN(Cc3ccc(F)cc3)c3cccc(C(F)(F)F)c3)n2)cc1` [Compound 24, N-(4-Fluorobenzyl)-N-((4-(4-nitrophenyl)thiazol-2-yl)methyl)-3-(trifluoromethyl)aniline] registered a melting point of 107 to 108.4 °C. The IC50 at recombinant CETP is 13.8 ± 0.14 µM.

The compound `O=[N+]([O-])c1ccc(-c2csc(CN(Cc3ccc(F)cc3)c3ccc(-c4ccccc4)cc3)n2)cc1` [Compound 25, N-(4-Fluorobenzyl)-N-((4-(4-nitrophenyl)thiazol-2-yl)methyl)-[1,1′-biphenyl]-4-amine] registered a melting point of 164.5 to 166.2 °C. At recombinant CETP, the IC50 came to 9.55 ± 0.08 µM.

`O=[N+]([O-])c1ccc(-c2csc(CN(Cc3ccc(F)cc3)c3cccc(-c4ccccc4)c3)n2)cc1` [Compound 26, N-(4-Fluorobenzyl)-N-((4-(4-nitrophenyl)thiazol-2-yl)methyl)-[1,1′-biphenyl]-3-amine]: the melting point fell in the range of 149.5 to 150.8 °C. Besides, the IC50 at recombinant CETP amounted to 8.98 ± 0.05 µM.

With `O=[N+]([O-])c1ccc(-c2csc(CN(Cc3ccc(F)cc3)c3ccccc3-c3ccccc3)n2)cc1` [Compound 27, N-(4-Fluorobenzyl)-N-((4-(4-nitrophenyl)thiazol-2-yl)methyl)-[1,1′-biphenyl]-2-amine], the IC50 on recombinant CETP came out at 1.02 ± 0.01 µM.

Regarding `O=[N+]([O-])c1ccc(-c2csc(CN(Cc3ccc(F)cc3)c3cccc(-c4cccs4)c3)n2)cc1` [Compound 28, N-(4-Fluorobenzyl)-N-((4-(4-nitrophenyl)thiazol-2-yl)methyl)-3-(thiophen-2-yl)aniline], the melting point was 143.9 to 148.8 °C. Besides, the IC50 at recombinant CETP worked out at 7.77 ± 0.13 µM.

As for `Cn1nccc1-c1cccc(N(Cc2ccc(F)cc2)Cc2nc(-c3ccc([N+](=O)[O-])cc3)cs2)c1` [Compound 29, N-(4-Fluorobenzyl)-3-(1-methyl-1H-pyrazol-5-yl)-N-((4-(4-nitrophenyl)thiazol-2-yl)methyl)aniline], the IC50 at recombinant CETP amounted to 24.56 ± 0.22 µM.

As to `COc1ccc(N(Cc2ccc(F)cc2)Cc2nc(-c3ccc(F)cc3)cs2)cc1OC` [Compound 31, N-(4-Fluorobenzyl)-N-((4-(4-fluorophenyl)thiazol-2-yl)methyl)-3,4-dimethoxyaniline], the half-inhibitory concentration (IC50) on recombinant CETP amounted to 2.46 ± 0.06 µM.

As for `COc1ccc(N(Cc2ccc(F)cc2)Cc2nc(-c3ccc(C#N)cc3)cs2)cc1OC` [Compound 33, 4-(2-(((3,4-Dimethoxyphenyl)(4-fluorobenzyl)amino)methyl)thiazol-4-yl)benzonitrile], the melting point was 105.4 to 106.6 °C. Besides, the IC50 on recombinant CETP is 1.5 ± 0.03 µM.

For `COc1ccc(N(Cc2ccc(F)cc2)Cc2nc(-c3cccc([N+](=O)[O-])c3)cs2)cc1OC` [Compound 34, N-(4-Fluorobenzyl)-3,4-dimethoxy-N-((4-(3-nitrophenyl)thiazol-2-yl)methyl)aniline], the melting point fell in the range of 120.5 to 121.6 °C. At recombinant CETP, the IC50 worked out at 1.38 ± 0.07 µM.

As to `COc1ccc(N(Cc2ccc(F)cc2)Cc2nc(-c3ccccc3[N+](=O)[O-])cs2)cc1OC` [Compound 35, N-(4-Fluorobenzyl)-3,4-dimethoxy-N-((4-(2-nitrophenyl)thiazol-2-yl)methyl)aniline], the IC50 at recombinant CETP came to 6.36 ± 0.12 µM.

Regarding `COc1ccc(N(Cc2ccc(F)cc2)Cc2nc(-c3ccc(Br)cc3)cs2)cc1OC` [Compound 36, N-((4-(4-Bromophenyl)thiazol-2-yl)methyl)-N-(4-fluorobenzyl)-3,4-dimethoxyaniline], the 50% inhibitory concentration (IC50) at recombinant CETP worked out at 8.96 ± 0.15 µM.

The compound `COc1ccc(N(Cc2ccc(F)cc2)Cc2nc(-c3ccc(-c4cnn(C)c4)cc3)cs2)cc1OC` [Compound 37, N-(4-Fluorobenzyl)-3,4-dimethoxy-N-((4-(4-(1-methyl-1H-pyrazol-4-yl)phenyl)thiazol-2-yl)methyl)aniline] displayed a melting point of 126.1 to 130.3 °C. Besides, the IC50 at recombinant CETP came out at 4.02 ± 0.05 µM.

For `COc1ccc(N(Cc2ccc(F)cc2)Cc2nc(-c3ccc(-c4c(C)noc4C)cc3)cs2)cc1OC` [Compound 38, N-((4-(4-(3,5-Dimethylisoxazol-4-yl)phenyl)thiazol-2-yl)methyl)-N-(4-fluorobenzyl)-3,4-dimethoxyaniline], the melting point was 69 to 69.8 °C. Moreover, at recombinant CETP, the IC50 is 7.57 ± 0.1 µM.

Compound `COc1ccc(N(Cc2ccc(F)cc2)Cc2nc(-c3ccc(-c4ccnn4C)cc3)cs2)cc1OC` [Compound 39, N-(4-Fluorobenzyl)-3,4-dimethoxy-N-((4-(4-(1-methyl-1H-pyrazol-5-yl)phenyl)thiazol-2-yl)methyl)aniline] had a melting point of 102.4 to 103.3 °C. Also, the IC50 at recombinant CETP amounted to 6.38 ± 0.09 µM.

In turn, `COc1ccc(N(Cc2ccc(F)cc2)Cc2nc(-c3ccc(-c4cccs4)cc3)cs2)cc1OC` [Compound 40, N-(4-Fluorobenzyl)-3,4-dimethoxy-N-((4-(4-(thiophen-2-yl)phenyl)thiazol-2-yl)methyl)aniline] had a melting point of 115.8 to 119 °C. For the same compound, the IC50 at recombinant CETP was 6.03 ± 0.04 µM.

Turning to `COc1ccc(N(Cc2ccc(F)cc2)Cc2nc(-c3ccc4ccccc4c3)cs2)cc1OC` [Compound 41, N-(4-Fluorobenzyl)-3,4-dimethoxy-N-((4-(naphthalen-2-yl)thiazol-2-yl)methyl)aniline], on recombinant CETP, the half-maximal inhibitory concentration (IC50) worked out at 3.51 ± 0.06 µM.

On to `COc1ccc(N(Cc2ccc(F)cc2)Cc2nc(-c3ccc(C)cc3)cs2)cc1OC` [Compound 42, N-(4-Fluorobenzyl)-3,4-dimethoxy-N-((4-(p-tolyl)thiazol-2-yl)methyl)aniline], for which the melting point is 105.3 to 107 °C. Further, the IC50 on recombinant CETP came out at 14 ± 0.21 µM.

Consider `COc1ccc(-c2csc(CN(Cc3ccc(F)cc3)c3ccc(OC)c(OC)c3)n2)cc1` [Compound 43, N-(4-Fluorobenzyl)-3,4-dimethoxy-N-((4-(4-methoxyphenyl)thiazol-2-yl)methyl)aniline], for which the melting point was 76.3 to 79 °C. Besides, the IC50 on recombinant CETP was 11 ± 0.31 µM.

As for `COc1ccc(N(Cc2ccc(F)cc2)Cc2nc(-c3ccc(N)cc3)cs2)cc1OC` [Compound 44, N-((4-(4-Aminophenyl)thiazol-2-yl)methyl)-N-(4-fluorobenzyl)-3,4-dimethoxyaniline], the melting point fell in the range of 144.7 to 146.2 °C. Besides, the IC50 on recombinant CETP turned out to be 16.7 ± 0.23 µM.

For `CCOC(=O)CCCOc1ccc(-c2csc(CN(Cc3ccc(F)cc3)c3ccc(OC)c(OC)c3)n2)cc1` [Compound 48, Ethyl-4-(4-(2-(((3,4-dimethoxyphenyl)(4-fluorobenzyl)amino)methyl)thiazol-4-yl)phenoxy)butanoate], at recombinant CETP, the half-maximal inhibitory concentration (IC50) was 8.4 ± 0.04 µM. Besides, the “decrease of activity on replacing the nitro group at the 4-position of ring B” value on recombinant CETP (compared with the 4-nitro compound (30)) was roughly 10 fold.
